Results as given in patent US11123324B2, “Immunomodulator” (priority 2016, dated 2021).
“Also recorded” adds a separate entry of the source.

Legend:
[1] = test system: B cells (mouse splenic cells); assay: In vitro class switching induction assay in mouse splenic cell culture with anti-mouse/rat CD40, isotype antibody titer by ELISA; format: cell-based; details: for IgE induction, secondary screening / IgG1 induction, secondary screening: ELISA; for IgE induction, secondary screening / IgG1 induction, secondary screening / IgA induction, secondary screening: 3.75 μM; for IgA induction, secondary screening: IgA sandwich ELISA, day 10 after addition; for IgE antibody production on day 7 / total IgG antibody production on day 7: Indolactam V 5, 10 μM
Method: Under conditions of free access to food and water, 5- to 8-week-old wild-type BALB/cAJcl (purchased from CLEA Japan, Inc.) was euthanized by cervical dislocation under isoflurane anesthesia. 70% Ethanol was sprayed, left abdomen was incised and the spleen was aseptically isolated. The spleen was subjected to a mild crushing treatment with two sterilized glass slides in a culture petri dish containing 5 ml of cell culture medium (RPMI1640 added with 10% FCS, 0.05 μM 2 ME, 80 μg/ml gentamicin) to give a splenic single cell suspension. The cell suspension was placed in a 15 ml tube, stood for 5 min, and the supernatant free of tissue debris was transferred to a new 15 ml tube. A washing operation was performed twice with the above-mentioned cell culture medium to give the number of viable cells. B cells occupy 35% of the viable cells and the number of B cells was obtained by calculation.
Based on the B cell number obtained in Example 1, the splenic cell suspension was diluted with the above-mentioned cell culture medium to 5×10^5/ml B cells, and the cells were added to a 24-well culture dish. The compound and cytokine were added to each well as shown in the results. […]
[…] As for ELISA capture antibody, each isotype antibody (unlabeled, mentioned later) was diluted to 2 μg/ml with 0.05 M Na2CO3 solution, added to ELISA plate (C96 MAXISORP NUNC-Immunoplate, Thermo Scientific) at 50 μl/well, and the plate was coated overnight at 4° C.
The next day, the coated ELISA plate was washed 3 times with 1×PBS. After washing, 1% BSA-added 1×PBS (50 μl) was added to each well and blocking was carried out at room temperature for 1 hr. During the blocking reaction, a dilution series of each culture supernatant was prepared using 1% BSA-added 1×PBS. The diluted sample was added to the plate after blocking at 50 μl/well, and the mixture was reacted at room temperature for 1 hr. Thereafter, a washing operation was performed 3 times with 0.05% Tween 20-added 1×PBS solution. Then, the secondary antibody (alkaline phosphatase-labeled) (0.5 μg/ml) that recognizes each isotype was added at 50 μl/well, and the mixture was reacted at room temperature for 1 hr. A washing operation was performed 3 times with 0.05% Tween 20-added 1×PBS solution, a substrate solution (Phosphatase substrate Sigma 104) was added, the mixture was placed under shading at room temperature to allow for color development, and the absorbance (405 nm) was measured with a plate reader. The antibody titer was shown as a relative absorbance value in a graph, or the absolute value was calculated from comparison with the standard isotype antibody and shown graphically.
In the primary screening, 3,337 kinds of compounds (provided by Drug Discovery Initiative, The University of Tokyo) were subjected to in vitro class switching assay. The final concentration of the compounds was 3.75 μM, and DMSO was added at a final concentration of 0.25% and anti-mouse/rat CD40 was added at a final concentration of 1 μg/ml to all wells including the wells added with cytokine. As a negative control, DMSO and CD40 were added.
In the secondary screening, 22 kinds of the candidate compounds obtained by the primary screening were screened. The culture conditions were the same as those in the primary screening. As the positive control, each isotype control antibody (1 μg/ml) was added. […] Compound No. 2 (Sapintoxin D), No. 12 (PMA) and No. 18 (ROPA) were all protein kinase C (PKC) activators.
From the results of the secondary screening, a substance that specifically induces IgA is a PKC activator and it has a characteristic cyclic structure. As compounds having a similar structure, 17 kinds of compounds (K1-K17) including the above-mentioned 3 kinds were provided by the library of Drug Discovery Initiative, The University of Tokyo. […]

B cells (splenic cells) = assay: Dose dependency of class switching induction by compound alone (no CD40), isotype ELISA; format: cell-based, mouse; details: 7 days; for IgA production by single stimulation free of CD40: each concentration tested (bryostatin 1 0-50 nM, 0-100 nM; Indolactam V 0-100 μM); for induction of IgE by single stimulation free of CD40 / induction of IgG by single stimulation free of CD40: each concentration tested
Method: Indolactam V and bryostatin 1 (Santa Cruz Biotechnology) were purchased, and induction of class switching was performed using splenic cells. To confirm dose dependency of compounds, stimulation was performed at the concentrations shown in FIG. 12, FIG. 13 and FIG. 14. For cell culture, the cells were added to each well of a 6 well plate at 1.0×10^6 B cells/1 ml/well and cultured for 7 days. The cells were cultured without adding anti-mouse/rat CD40 to all wells and the negative control was added with culture medium alone. Stimulation with each cytokine was used as a positive control. The final concentration of each cytokine was 1 μg/ml for anti-mouse/rat CD40, 12.5 ng/ml for IL-4, 20 μg/ml for LPS as in the above-mentioned experiments.
The antibody titer measurement of each isotype by ELISA was performed by a method similar to that mentioned above. As a result, it was confirmed at each concentration tested that IgA was produced and induction of IgG and IgE was not observed by single stimulation with each of bryostatin 1 and Indolactam V free of CD40.

[2] = test system: alpha germline transcript; assay: RT-PCR confirmation of expression of alpha germline transcript in stimulated splenic cells; format: cell-based, mouse; details: day 3 of stimulation; for expression of alpha germline transcript (RT-PCR): FIG. 11
Method: (§1) As evidence that class switching is in progress, the expression of alpha germline transcript and AID was confirmed by RT-PCR. Splenic cells were first stimulated with compound or cytokine under the same conditions as in Example 2. On day 3 of stimulation, floating cells were recovered and total RNA was extracted. cDNA was synthesized using random primers and RT-PCR was performed using the following primers.
(§2) PCR was performed using rTaq (TAKARA) and under the following conditions: […]

AID = assay: RT-PCR confirmation of expression of AID in stimulated splenic cells; format: cell-based, mouse; details: day 3 of stimulation; for expression of AID (RT-PCR): FIG. 11
Method: as §1, §2

[3] = stated as known / considered, not tested; cited from earlier work
cultured splenic cells = assay: Proliferation / cell number of cultured splenic cells under stimulation; format: cell-based, mouse
Method: Based on the B cell number obtained in Example 1, the splenic cell suspension was diluted with the above-mentioned cell culture medium to 5×10^5/ml B cells, and the cells were added to a 24-well culture dish. The compound and cytokine were added to each well as shown in the results. DMSO was added such that the concentration of DMSO, which is a solvent of the compound was equivalent in each well (final concentration 0.25%). A mixed culture medium of the compound and splenic cells was subjected to static culture for one week under conditions of 37° C., 5% CO2.
Thus, a substance that has properties as a PKC activator but is free of carcinogenicity was searched for and bryostatin 1 (Santa Cruz Biotechnology sc-201407) was obtained as a candidate (FIGS. 6 and 7). […] Since bryostatin is a substance having a structure completely different from those of the compounds tested in the tertiary screening, those of ordinary skill in the art in consideration of the results of Example 3 and Example 4 readily appreciate that PKC activators in general can be used as substances that induce specific class switching to IgA. In the experiments shown in FIG. 6 and FIG. 7, the final concentration of Indolactam V was 5 μM and 10 μM from the left, and the final concentration of bryostatin 1 was 1 nM, 5 nM, 10 nM from the left.
It was considered to be more than the survival and maintenance of IgA-producing cells originally existed in the spleen. Expression of both transcripts was low when CD40 was not added for bryostatin 1. This may reflect the difference in the amount of cDNA used for RT-PCR.

Row | Compound | IgE induction, secondary screening ([1]; with CD40) | IgG1 induction, secondary screening ([1]; with CD40) | IgE antibody production on day 7 ([1]; bryostatin 1 1, 5, 10 nM) | total IgG antibody production on day 7 ([1]; bryostatin 1 1, 5, 10 nM) | IgA production by single stimulation free of CD40 (B cells (splenic cells)) | induction of IgE by single stimulation free of CD40 (B cells (splenic cells)) | induction of IgG by single stimulation free of CD40 (B cells (splenic cells)) | expression of alpha germline transcript (RT-PCR) [2] | expression of AID (RT-PCR) (AID) | carcinogenicity [3] | also measured
1 | CNc1ccccc1C(=O)O[C@@H]1[C@@H](C)[C@@]2(O)[C@@H](C=C(CO)C[C@]3(O)C(=O)C(C)=C[C@@H]23)[C@@H]2C(C)(C)[C@]12OC(C)=O [Compound No. 2, Sapintoxin D] | did not induce | did not induce |  |  |  |  |  |  |  |  | IgA induction, secondary screening ([1]; with CD40): induced IgA; also recorded: specifically induce IgA
2 | CC(C)[C@H]1C(=O)N[C@H](CO)Cc2c[nH]c3cccc(c23)N1C [Indolactam V] |  |  | scarcely produced | scarcely produced | produced; also recorded: Only the induction of IgA is shown to occur | not observed | not observed | observed | observed | strong carcinogenicity | IgA inducing activity, tertiary screening ([1]; culture supernatant one week later, with CD40, Indolactam V 1-7 μM): very strong; IgA specific class switching, tertiary screening ([1]; triplicate, culture supernatant one week later, with CD40, Indolactam V 1, 3, 3.75, 5, 7 μM): induced IgA specific class switching; also recorded: best effect
3 | CCC/C=C/C=C/C(=O)O[C@H]1/C(=C/C(=O)OC)C[C@H]2C[C@H]([C@@H](C)O)OC(=O)C[C@H](O)C[C@@H]3C[C@H](OC(C)=O)C(C)(C)[C@](O)(C[C@@H]4C/C(=C/C(=O)OC)C[C@H](/C=C/C(C)(C)[C@]1(O)O2)O4)O3 [bryostatin 1] |  |  | scarcely produced | scarcely produced | produced; also recorded: Only the induction of IgA is shown to occur | not observed | not observed | observed | observed | did not show carcinogenicity | IgA induction potency compared with Indolactam V ([1]; Example 4, FIG. 6): inferior; specific class switching to IgA (Example 4) ([1]; Example 4, FIGS. 6 and 7): induces specific class switching to IgA; IgA antibody titer on day 5 compared to the negative control (0.02% DMSO+CD40) ([1]; bryostatin 1 1, 5, 10 nM, with CD40, day 5): increased significantly; IgA antibody titer on day 7 ([1]; bryostatin 1 1, 5, 10 nM, with CD40, day 7): low; expression of alpha germline transcript (RT-PCR), CD40 not added ([2]; without CD40): low; expression of AID (RT-PCR), CD40 not added (AID; without CD40): low; proliferation of cultured cells, compound alone (cultured splenic cells; bryostatin 1 alone (Example 5)): scarcely observed; proliferation of cultured cells (cultured splenic cells; bryostatin 1 stimulation (Example 4)): scarcely observed; cell number on day 7 (cultured splenic cells; stimulated with bryostatin 1, day 7): extremely small
4 | CCCCCCCCCCCCCC(=O)O[C@@H]1[C@@H](C)[C@@]2(O)[C@@H](C=C(CO)C[C@]3(O)C(=O)C(C)=C[C@@H]23)[C@@H]2C(C)(C)[C@]12OC(C)=O [compound 12, phorbol 12-myristate 13-acetate] | did not induce | did not induce |  |  |  |  |  |  |  |  | IgA induction, secondary screening ([1]; with CD40, listed as No. 12): induced IgA; also recorded: specifically induce IgA
5 | Resiniferonol-9,13,14-orthophenyl acetate [compound 18] | did not induce | did not induce |  |  |  |  |  |  |  |  | IgA induction, secondary screening ([1]; with CD40, listed as No. 18): induced IgA; also recorded: specifically induce IgA
